The experiment deals with T1, Broad substrate specificity ATP-binding cassette transporter ABCG2 (Homo sapiens, UniProt Q9UNQ0).
T1 sequence (Q9UNQ0 whole entry): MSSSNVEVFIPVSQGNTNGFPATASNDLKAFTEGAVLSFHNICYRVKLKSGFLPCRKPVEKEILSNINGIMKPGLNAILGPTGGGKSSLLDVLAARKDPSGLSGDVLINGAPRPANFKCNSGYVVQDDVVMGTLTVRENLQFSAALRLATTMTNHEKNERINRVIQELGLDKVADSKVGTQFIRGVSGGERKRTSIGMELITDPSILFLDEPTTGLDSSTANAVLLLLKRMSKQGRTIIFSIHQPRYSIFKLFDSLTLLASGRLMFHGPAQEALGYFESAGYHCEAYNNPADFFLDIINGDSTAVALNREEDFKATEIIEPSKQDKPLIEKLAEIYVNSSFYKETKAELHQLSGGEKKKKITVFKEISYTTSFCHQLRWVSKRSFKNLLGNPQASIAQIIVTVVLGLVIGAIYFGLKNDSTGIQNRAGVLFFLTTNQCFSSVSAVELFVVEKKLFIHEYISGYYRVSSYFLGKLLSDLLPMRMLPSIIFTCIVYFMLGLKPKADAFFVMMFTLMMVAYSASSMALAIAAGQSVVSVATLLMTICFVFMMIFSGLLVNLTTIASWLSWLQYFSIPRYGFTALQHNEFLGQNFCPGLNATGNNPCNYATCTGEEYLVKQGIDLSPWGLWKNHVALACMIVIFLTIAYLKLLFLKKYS
Nature of the experiment: Inhibition of ABCG2 (unknown origin) expressed in HEK293 cells assessed as increase in mitoxantrone accumulation incubated for 30 mins by flow cytometric method. Format: cell-based. A general note: Flow cytometry measures light scatter and fluorescence of single cells or particles in a stream.

Structures are written as SMILES.

One may read the EC50 as the concentration giving half of the maximal effect.

Turning to `COc1ccc2[nH]cc(CCNC(=O)c3cc(=O)c4c(OCc5cc(Br)cc(Br)c5)cccc4o3)c2c1`, the half-maximal effective concentration (EC50) was 97 nM.
For `COc1ccc2[nH]cc(CCNC(=O)c3cc(=O)c4c(OCc5ccc(Br)cc5Br)cccc4o3)c2c1`, the EC50 came to 46 nM.

For the origin of these results see ChEMBL document CHEMBL4406873, “Optimization of the chromone scaffold through QSAR and docking studies: Identification of potent inhibitors of ABCG2” (Eur J Med Chem, 2019).
